The values that follow come from publication PMC3608752 (Annals of neurology, 2013).

The target in this experiment is T1, PH20 hyaluronidase (bovine testicular hyaluronidase, BTH/PH20) (Bos taurus, UniProt Q2YDK3).
T1 sequence (Q2YDK3 36-553): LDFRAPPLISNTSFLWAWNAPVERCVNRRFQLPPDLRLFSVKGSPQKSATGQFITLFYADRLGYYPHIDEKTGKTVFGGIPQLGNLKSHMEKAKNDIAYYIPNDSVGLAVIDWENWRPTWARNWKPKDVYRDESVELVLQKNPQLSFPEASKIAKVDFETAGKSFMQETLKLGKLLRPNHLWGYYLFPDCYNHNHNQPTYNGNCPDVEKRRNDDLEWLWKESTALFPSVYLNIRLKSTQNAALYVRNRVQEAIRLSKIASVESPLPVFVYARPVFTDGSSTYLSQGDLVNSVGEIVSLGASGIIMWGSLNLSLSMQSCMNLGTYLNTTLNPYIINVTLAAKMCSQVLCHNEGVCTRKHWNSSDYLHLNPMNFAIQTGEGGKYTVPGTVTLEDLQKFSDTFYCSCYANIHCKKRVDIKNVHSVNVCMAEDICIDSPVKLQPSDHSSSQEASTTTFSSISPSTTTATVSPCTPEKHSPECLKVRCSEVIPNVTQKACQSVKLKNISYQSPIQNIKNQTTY
The format is biochemical.

The IC50 is the concentration at which inhibition is half-maximal. A lower IC50 goes with greater potency in that assay.

For the compound `CCCCCCCCCCCCCCCC(=O)OC[C@H](O)[C@H]1OC(=O)C(O)=C1O` [VCPAL, 6-O-Palmitoyl-L-ascorbic acid], the IC50 is around 33 µM.
